Data taken from ChEMBL document CHEMBL3580649, “Cardamonin induces autophagy and an antiproliferative effect through JNK activation in human colorectal carcinoma HCT116 cells” (2015).
Active and inactive are the calls of the source. The rule behind the calls is not given here.

Columns and labels:
[1] = system: HCT-116; assay: Induction of cell cycle arrest in human HCT116 cells assessed as cells accumulation at S phase at 10 uM after 24 hrs by propidium iodide staining-based flow cytometry (reference value: 48.8 +/- 1.5%); type: functional
[2] = system: HCT-116; assay: Induction of cell cycle arrest in human HCT116 cells assessed as cells accumulation at G2/M phase at 10 uM after 24 hrs by propidium iodide staining-based flow cytometry (reference value: 19.2 +/- 0.3%); type: functional
[3] = system: HCT-116; assay: Induction of autophagy in human HCT116 cells assessed as autophagic vacuoles at 10 uM after 24 hrs by monodansylcadaverine staining assay; type: functional, cell-based
[4] = system: HCT-116; assay: Induction of autophagy in human HCT116 cells assessed as autophagic vacuoles at 10 uM after 24 hrs by monodansylcadaverine staining assay in presence of Bafilomycin A1; type: functional, cell-based
[5] = system: HCT-116; assay: Induction of autophagy in human HCT116 cells assessed as increase in LC3-II accumulation at 10 uM upto 20 hrs by immunoblot analysis; type: functional, cell-based
[6] = system: HCT-116; assay: Induction of autophagy in human HCT116 cells assessed as increase in LC3-II accumulation at 10 uM upto 20 hrs by Confocal imaging analysis; type: functional, cell-based
[7] = system: HCT-116; assay: Induction of autophagy in human HCT116 cells assessed as increase in LC3-II dots per cell at 10 uM upto 20 hrs by Confocal imaging analysis relative to vehicle treated control (reference value: 0.8/cell); type: functional
[8] = system: HCT-116; assay: Induction of autophagy in human HCT116 cells transfected with shRNA against p53 assessed as LC3-II accumulation at 10 uM after 24 hrs by Western blotting analysis; type: functional, cell-based
[9] = system: HCT-116; assay: Induction of autophagy in human HCT116 cells assessed as LC3-II accumulation at 10 uM upto 20 hrs by Western blotting analysis in presence of 30 uM PFT-alpha p53 antagonist; type: functional, cell-based
[10] = system: HCT-116; assay: Antiproliferative activity against human HCT116 cells transfected with shRNA against p53 at 10 uM after 24 hrs by CCK8 assay relative to control; type: functional, cell-based
[11] = system: HCT-116; assay: Antiproliferative activity against human HCT116 cells transfected with shRNA against p53 at 10 uM after 24 hrs by CCK8 assay in presence of exogenous p53 gene; type: functional, cell-based
[12] = target: Mitogen-activated protein kinase 8 (Homo sapiens) (UniProt P45983); assay: Activation of JNK1 in human HCT116 cells assessed as phosphorylation at 10 uM after 24 hrs by Western blotting analysis; type: cell-based; settings: HCT-116
Chain of Mitogen-activated protein kinase 8 (Homo sapiens) (P45983 whole entry): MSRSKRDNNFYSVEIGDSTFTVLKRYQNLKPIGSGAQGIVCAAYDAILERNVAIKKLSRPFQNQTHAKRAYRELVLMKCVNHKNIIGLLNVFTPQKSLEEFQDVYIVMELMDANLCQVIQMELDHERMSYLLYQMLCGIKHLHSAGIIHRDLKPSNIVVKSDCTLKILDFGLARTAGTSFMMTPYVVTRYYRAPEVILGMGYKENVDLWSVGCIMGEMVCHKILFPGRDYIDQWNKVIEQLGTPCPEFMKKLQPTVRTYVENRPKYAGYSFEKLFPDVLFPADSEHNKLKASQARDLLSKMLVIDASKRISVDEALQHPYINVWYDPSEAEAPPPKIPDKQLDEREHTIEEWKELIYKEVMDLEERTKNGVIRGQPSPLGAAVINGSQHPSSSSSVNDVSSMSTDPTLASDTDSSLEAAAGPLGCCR

[13] = target: Mitogen-activated protein kinase 9 (Homo sapiens) (UniProt P45984); assay: Activation of JNK2 in human HCT116 cells assessed as phosphorylation at 10 uM after 24 hrs by Western blotting analysis; type: cell-based; settings: HCT-116
Chain of Mitogen-activated protein kinase 9 (Homo sapiens) (P45984 whole entry, looked up): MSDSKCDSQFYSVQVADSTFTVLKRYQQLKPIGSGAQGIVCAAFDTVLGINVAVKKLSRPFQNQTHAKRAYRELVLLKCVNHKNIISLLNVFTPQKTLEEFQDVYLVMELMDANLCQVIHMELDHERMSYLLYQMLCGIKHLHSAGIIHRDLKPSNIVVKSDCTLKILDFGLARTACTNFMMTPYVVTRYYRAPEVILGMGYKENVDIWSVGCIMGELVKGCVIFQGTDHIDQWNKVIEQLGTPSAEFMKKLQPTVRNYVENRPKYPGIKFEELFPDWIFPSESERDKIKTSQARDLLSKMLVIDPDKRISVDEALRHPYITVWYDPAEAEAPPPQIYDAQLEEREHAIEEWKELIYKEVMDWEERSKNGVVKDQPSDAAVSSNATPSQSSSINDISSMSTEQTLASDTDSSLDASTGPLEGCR

[14] = target: Mitogen-activated protein kinase 8 (Homo sapiens) (UniProt P45983); assay: Activation of JNK1 in human HCT116 cells transfected with shRNA against p53 assessed as phosphorylation at 10 uM after 24 hrs by Western blotting analysis; type: cell-based; settings: HCT-116
[15] = target: Mitogen-activated protein kinase 9 (Homo sapiens) (UniProt P45984); assay: Activation of JNK2 in human HCT116 cells transfected with shRNA against p53 assessed as phosphorylation at 10 uM after 24 hrs by Western blotting analysis; type: cell-based; settings: HCT-116
[16] = target: Mitogen-activated protein kinase 8 (Homo sapiens) (UniProt P45983); assay: Activation of JNK1 in human HCT116 cells assessed as phosphorylation at 10 uM after 24 hrs by Western blotting analysis in presence of 30 uM PFT-alpha p53 antagonist; type: cell-based; settings: HCT-116
[17] = target: Mitogen-activated protein kinase 9 (Homo sapiens) (UniProt P45984); assay: Activation of JNK2 in human HCT116 cells assessed as phosphorylation at 10 uM after 24 hrs by Western blotting analysis in presence of 30 uM PFT-alpha p53 antagonist; type: cell-based; settings: HCT-116
[18] = system: HCT-116; assay: Induction of autophagy in human HCT116 cells assessed as LC3-II accumulation at 10 uM upto 20 hrs by Western blotting analysis in presence of 20 uM SP600125 reversible JNK inhibitor; type: functional, cell-based
[19] = system: HCT-116; assay: Antiproliferative activity against human HCT116 cells at 10 uM upto 20 hrs by CCK8 assay relative to control in presence of 20 uM SP600125 reversible JNK inhibitor; type: functional, cell-based
[20] = system: HCT-116; assay: Antiproliferative activity against human HCT116 cells assessed as cell viability after 24 hrs by WST8 assay; type: functional, cell-based
[21] = system: HCT-116; assay: Antiproliferative activity against human HCT116 cells assessed as cell viability at 10 uM after 24 hrs by WST8 assay relative to vehicle treated control; type: functional; settings: HCT-116, 24 h
[22] = system: HCT-116; assay: Induction of cell cycle arrest in human HCT116 cells assessed as cells accumulation at G0/G1 phase at 10 uM after 24 hrs by propidium iodide staining-based flow cytometry (reference value: 31.9 +/- 2.3%); type: functional

SMILES: COc1cc(O)cc(O)c1C(=O)/C=C/c1ccccc1 [CARDAMOMIN]
- Activity [1]: 46.6%
- Activity [2]: 25%
- Activity [3]: Active
- Activity [4]: inactive
- Activity [5]: Active
- Activity [6]: Active
- Activity [7]: 3.4
- Activity [8]: inactive
- Activity [9]: inactive
- inhibition [10]: inactive
- inhibition [11]: Active
- Activity [12]: Active
- Activity [13]: Active
- Activity [14]: inactive
- Activity [15]: inactive
- Activity [16]: inactive
- Activity [17]: inactive
- Activity [18]: inactive
- Activity [19]: inactive
- inhibition [20]: Dose-dependent effect
- inhibition at 10 µM [21]: 37%
- Activity [22]: 28.4%
